Active and inactive are the calls of the source. The rule behind the calls is not given here.
Experiments:
A549 = experiment: Cytotoxicity against human A549 cells assessed as cell viability incubated for 48 hrs by MTT assay; type: functional, cell-based
K562 = experiment: Cytotoxicity against human K562 cells assessed as cell viability incubated for 48 hrs by MTT assay; type: functional, cell-based
HeLa = experiment: Cytotoxicity against human HeLa cells assessed as cell viability incubated for 48 hrs by MTT assay; type: functional, cell-based
[1] = target: T1, Tyrosine-protein phosphatase non-receptor type 2 (Homo sapiens, UniProt P17706); experiment: Inhibition of recombinant human TCPTP expressed in Escherichia coli using p-nitrophenyl phosphate as substrate preincubated for 15 mins followed by substrate addition and measured after 60 mins
T1 sequence (P17706 whole entry): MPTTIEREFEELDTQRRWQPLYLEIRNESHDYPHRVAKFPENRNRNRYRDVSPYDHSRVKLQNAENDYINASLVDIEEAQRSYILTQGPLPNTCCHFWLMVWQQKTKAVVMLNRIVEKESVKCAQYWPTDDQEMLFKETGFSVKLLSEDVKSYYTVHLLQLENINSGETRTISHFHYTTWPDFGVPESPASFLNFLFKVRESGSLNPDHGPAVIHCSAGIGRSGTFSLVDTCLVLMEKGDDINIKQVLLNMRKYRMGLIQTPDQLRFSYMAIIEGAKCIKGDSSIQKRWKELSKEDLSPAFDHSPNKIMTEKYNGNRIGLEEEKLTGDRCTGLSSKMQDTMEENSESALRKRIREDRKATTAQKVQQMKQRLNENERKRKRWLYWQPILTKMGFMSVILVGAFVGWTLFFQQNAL

[2] = target: Dual specificity protein phosphatase 3 (Homo sapiens) (UniProt P51452); experiment: Inhibition of recombinant human VHR expressed in Escherichia coli using p-nitrophenyl phosphate as substrate preincubated for 15 mins followed by substrate addition and measured after 60 mins
Chain of Dual specificity protein phosphatase 3 (Homo sapiens) (P51452 whole entry, looked up): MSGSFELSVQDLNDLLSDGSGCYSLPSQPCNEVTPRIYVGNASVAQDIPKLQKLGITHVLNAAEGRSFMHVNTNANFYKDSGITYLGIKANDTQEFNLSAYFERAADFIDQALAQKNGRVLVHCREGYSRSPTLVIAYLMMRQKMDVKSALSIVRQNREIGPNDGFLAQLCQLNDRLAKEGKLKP

[3] = target: T2, Tyrosine-protein phosphatase non-receptor type 1 (Homo sapiens, UniProt P18031); experiment: Inhibition of recombinant human PTP1B expressed in Escherichia coli using p-nitrophenyl phosphate as substrate preincubated for 15 mins followed by substrate addition and measured after 60 mins
T2 sequence (P18031 whole entry): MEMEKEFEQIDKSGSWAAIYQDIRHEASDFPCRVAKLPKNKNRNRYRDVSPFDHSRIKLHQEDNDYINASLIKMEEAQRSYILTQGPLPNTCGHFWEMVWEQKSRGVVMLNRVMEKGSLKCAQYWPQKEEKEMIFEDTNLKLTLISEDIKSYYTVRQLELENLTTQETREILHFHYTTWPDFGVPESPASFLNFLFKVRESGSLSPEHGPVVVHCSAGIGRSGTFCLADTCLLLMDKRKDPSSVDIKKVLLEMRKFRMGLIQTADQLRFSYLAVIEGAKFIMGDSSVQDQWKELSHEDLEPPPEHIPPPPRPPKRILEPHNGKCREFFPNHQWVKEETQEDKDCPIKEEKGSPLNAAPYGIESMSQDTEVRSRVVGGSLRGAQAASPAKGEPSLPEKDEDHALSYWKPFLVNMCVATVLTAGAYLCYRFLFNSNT

SGC-7901 = experiment: Cytotoxicity against human SGC7901 cells assessed as cell viability incubated for 48 hrs by MTT assay; type: functional, cell-based
[4] = target: Receptor-type tyrosine-protein phosphatase S (Homo sapiens, UniProt Q13332); experiment: Inhibition of recombinant human PTPsigma expressed in Escherichia coli using p-nitrophenyl phosphate as substrate preincubated for 15 mins followed by substrate addition and measured after 60 mins
Chain of Receptor-type tyrosine-protein phosphatase S (Q13332 whole entry): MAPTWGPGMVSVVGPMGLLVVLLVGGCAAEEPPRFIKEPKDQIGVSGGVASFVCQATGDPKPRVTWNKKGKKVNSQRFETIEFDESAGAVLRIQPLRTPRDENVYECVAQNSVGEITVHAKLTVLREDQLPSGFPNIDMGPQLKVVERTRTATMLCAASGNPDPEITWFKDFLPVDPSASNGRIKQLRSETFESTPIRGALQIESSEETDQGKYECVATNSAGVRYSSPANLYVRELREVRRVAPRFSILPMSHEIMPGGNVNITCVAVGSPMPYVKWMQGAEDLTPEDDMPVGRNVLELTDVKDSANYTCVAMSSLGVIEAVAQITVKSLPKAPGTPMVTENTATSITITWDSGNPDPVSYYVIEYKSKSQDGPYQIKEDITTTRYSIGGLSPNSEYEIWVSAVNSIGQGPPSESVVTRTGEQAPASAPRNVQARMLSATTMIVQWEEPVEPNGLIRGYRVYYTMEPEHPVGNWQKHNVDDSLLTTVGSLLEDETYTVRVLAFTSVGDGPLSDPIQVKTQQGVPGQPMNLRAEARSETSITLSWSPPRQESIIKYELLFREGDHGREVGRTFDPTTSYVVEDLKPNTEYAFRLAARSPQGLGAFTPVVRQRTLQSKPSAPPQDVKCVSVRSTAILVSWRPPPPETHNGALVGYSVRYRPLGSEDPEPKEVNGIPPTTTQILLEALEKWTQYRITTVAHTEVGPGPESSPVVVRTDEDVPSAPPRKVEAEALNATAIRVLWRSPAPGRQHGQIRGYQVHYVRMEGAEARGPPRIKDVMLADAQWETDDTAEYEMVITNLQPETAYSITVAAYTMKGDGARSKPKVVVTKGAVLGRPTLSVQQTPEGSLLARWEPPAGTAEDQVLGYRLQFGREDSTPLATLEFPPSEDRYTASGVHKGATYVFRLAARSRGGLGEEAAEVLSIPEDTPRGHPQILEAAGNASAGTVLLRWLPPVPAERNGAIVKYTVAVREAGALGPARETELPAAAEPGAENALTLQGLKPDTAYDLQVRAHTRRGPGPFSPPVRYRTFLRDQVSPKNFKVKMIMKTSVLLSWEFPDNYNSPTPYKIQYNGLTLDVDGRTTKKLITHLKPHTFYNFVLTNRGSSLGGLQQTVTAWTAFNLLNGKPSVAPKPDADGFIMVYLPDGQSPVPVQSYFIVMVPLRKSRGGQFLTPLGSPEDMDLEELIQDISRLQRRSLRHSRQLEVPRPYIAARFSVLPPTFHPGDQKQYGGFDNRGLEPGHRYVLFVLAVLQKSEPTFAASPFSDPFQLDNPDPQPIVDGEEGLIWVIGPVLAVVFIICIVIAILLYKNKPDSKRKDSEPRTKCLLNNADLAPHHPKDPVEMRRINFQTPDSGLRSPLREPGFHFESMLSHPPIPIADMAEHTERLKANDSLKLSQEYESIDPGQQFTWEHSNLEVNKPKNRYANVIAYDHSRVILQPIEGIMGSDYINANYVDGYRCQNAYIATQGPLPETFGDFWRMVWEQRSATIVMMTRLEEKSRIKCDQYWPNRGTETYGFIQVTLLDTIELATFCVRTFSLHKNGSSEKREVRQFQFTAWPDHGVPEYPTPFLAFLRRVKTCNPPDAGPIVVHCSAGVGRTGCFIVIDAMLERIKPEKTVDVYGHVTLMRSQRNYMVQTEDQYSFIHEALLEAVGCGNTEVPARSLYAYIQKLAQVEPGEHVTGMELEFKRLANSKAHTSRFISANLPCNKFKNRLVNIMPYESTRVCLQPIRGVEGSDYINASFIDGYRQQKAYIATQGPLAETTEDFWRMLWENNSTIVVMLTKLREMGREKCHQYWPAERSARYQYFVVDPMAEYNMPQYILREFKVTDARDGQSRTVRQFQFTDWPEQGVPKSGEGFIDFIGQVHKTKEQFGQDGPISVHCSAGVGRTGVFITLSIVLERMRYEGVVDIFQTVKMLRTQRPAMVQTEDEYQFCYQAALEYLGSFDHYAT

inhibition [2]	IC50 [3] [µM]	IC50 [4] [µM]	SMILES	Activity (A549)	Activity (K562)	Activity (HeLa)	IC50 [1] [µM]	Activity (SGC-7901)
inactive	13	–	CC(C)(O)[C@H]1O[C@@]2(O)CC[C@@]3(C)C(=CC[C@H]4Cc5c([nH]c6ccccc56)[C@@]43C)C2=CC1=O	inactive	inactive	inactive	37	inactive
inactive	–	–	CC(C)(O)[C@@H]1OC(=O)C=C2[C@H](CC[C@@]3(C)[C@@]2(O)CC[C@H]2Cc4c([nH]c5ccccc45)[C@@]23C)O1	inactive	inactive	inactive	–	inactive
inactive	–	–	CC(C)(O)[C@@H]1CC[C@]2(C=O)[C@H](CC[C@@]3(C)[C@H]2CC[C@H]2Cc4c([nH]c5ccccc45)[C@@]23C)O1	inactive	inactive	inactive	–	inactive
inactive	–	–	CC1(C)O[C@@]23CC[C@@]4(C)[C@@](O)(CC[C@H]5Cc6c([nH]c7ccccc67)[C@@]54C)C2=CC(=O)[C@H]1O3	inactive	inactive	inactive	–	inactive
inactive	27	–	C[C@]12CC[C@@H]3OCC(=O)C=C3[C@]1(O)CC[C@H]1Cc3c([nH]c4ccccc34)[C@@]12C	inactive	inactive	inactive	–	inactive
inactive	–	–	CC1(C)CC2=C(Cc3cc4c5c([nH]c4cc32)[C@@]2(C)[C@@H](CC[C@@]3(O)C4=CC(=O)[C@@H](C(C)(C)O)O[C@@]4(O)CC[C@@]32C)C5)C(C)(C)O1	inactive	inactive	inactive	–	inactive
inactive	–	–	CC1(C)C=C2c3cc4[nH]c5c(c4cc3C[C@@H]2C(C)(C)O1)C[C@@H]1CC[C@@]2(O)C3=CC(=O)[C@@H](C(C)(C)O)O[C@@]3(O)CC[C@]2(C)[C@@]51C	inactive	inactive	inactive	–	inactive
inactive	14	38	CC1(C)C[C@H]2[C@@H]3C(=O)CC[C@]4(C)[C@@]5(C)c6[nH]c7ccccc7c6C[C@@H]5CC[C@@]34O[C@@]2(O)[C@@H]1O	inactive	inactive	inactive	–	inactive
inactive	–	–	CC(C)(O)[C@@H]1CC=C2[C@H](CC[C@@]3(C)[C@H]2CC[C@H]2Cc4c([nH]c5ccccc45)[C@@]23C)O1	inactive	inactive	inactive	–	inactive
inactive	–	–	CC(C)(O)[C@H]1O[C@H]2CC[C@@]3(C)[C@@](O)(CC[C@@H](CC(=O)c4ccccc4N)[C@]3(C)C(=O)O)C2=CC1=O	inactive	inactive	inactive	–	inactive
inactive	–	–	CC1(C)CC2=C(Cc3cc4c(cc32)NC(=O)[C@@]2(C)[C@@H](CC[C@@]3(O)C5=CC(=O)[C@@H](C(C)(C)O)O[C@H]5CC[C@@]32C)CC4=O)C(C)(C)O1	inactive	inactive	inactive	–	inactive

SMILES	inhibition [2]	IC50 [3] [µM]	IC50 [4] [µM]	Activity (A549)	Activity (K562)	Activity (HeLa)	IC50 [1] [µM]	Activity (SGC-7901)
CC(C)(O)[C@H]1O[C@H]2CC[C@@]3(C)[C@@](O)(CC[C@H]4C(=O)c5c([nH]c6ccccc56)[C@@]43C)C2=CC1=O	inactive	23	–	inactive	inactive	inactive	35	inactive

From ChEMBL document CHEMBL4414570, “Indole-Diterpenoids with Protein Tyrosine Phosphatase Inhibitory Activities from the Marine-Derived Fungus Penicillium sp. KFD28” (J Nat Prod, 2019)
